The series has as its system CCRIS mutagenicity, Ames/micronucleus/aberration tests. Description: CCRIS mutagenicity studies.
The mark [1] stands for this setting: Test System: AMES SALMONELLA TYPHIMURIUM, Strain/Indicator: TA98, Metabolic Activation: NONE, Method: PREINCUBATION
Where [2] appears, read: Test System: AMES SALMONELLA TYPHIMURIUM, Strain/Indicator: TA100, Metabolic Activation: NONE, Method: PREINCUBATION
Where [3] appears, read: Test System: AMES SALMONELLA TYPHIMURIUM, Strain/Indicator: TA100, Metabolic Activation: RAT, LIVER, S-9, PCB, Method: PREINCUBATION
Setting [4] is: Test System: AMES SALMONELLA TYPHIMURIUM, Strain/Indicator: TA98, Metabolic Activation: NONE, Method: STANDARD PLATE.
The mark [5] stands for this setting: Test System: AMES SALMONELLA TYPHIMURIUM, Strain/Indicator: TA98, Metabolic Activation: RAT, LIVER, S-9, AROCLOR 1254, Method: STANDARD PLATE.
Where [6] appears, read: Test System: AMES SALMONELLA TYPHIMURIUM, Strain/Indicator: TA100, Metabolic Activation: NONE, Method: STANDARD PLATE.
The mark [7] stands for this setting: Test System: AMES SALMONELLA TYPHIMURIUM, Strain/Indicator: TA100, Metabolic Activation: RAT, LIVER, S-9, AROCLOR 1254, Method: STANDARD PLATE.

SMILES strings stand for the structures. Active and inactive are the calls of the source. No rule for the calls is given here.

For the compound `O=[N+]([O-])c1cccc2c([N+](=O)[O-])cccc12`, the mutagenic call is “active; positive (structural changes)” (End Point: IN VITRO CHROMOSOMAL ABERRATIONS, Test System: CHL CELLS, Metabolic Activation: RAT, LIVER, S-9, SODIUM PHENOBARBITAL AND 5,6-BENZOFLAVONE); “active; positive” (Test System: AMES SALMONELLA TYPHIMURIUM, Strain/Indicator: TA98, Metabolic Activation: HAMSTER, LIVER, S-9, AROCLOR 1254 (30%), Method: PREINCUBATION); “active; positive” under setting [1]; “active; positive” (Test System: AMES SALMONELLA TYPHIMURIUM, Strain/Indicator: TA98, Metabolic Activation: RAT LIVER S-9, PHENOBARBITAL AND BETA-NAPHTHOFLAVONE, Method: PREINCUBATION); “active; positive” (Test System: AMES SALMONELLA TYPHIMURIUM, Strain/Indicator: TA98, Metabolic Activation: RAT, LIVER, S-9, AROCLOR 1254 (30%), Method: PREINCUBATION); “active; positive” (Test System: AMES SALMONELLA TYPHIMURIUM, Strain/Indicator: TA100, Metabolic Activation: HAMSTER, LIVER, S-9, AROCLOR 1254 (30%), Method: PREINCUBATION). For the same compound, the mutagenic call under setting [2] is “active; positive”; the mutagenic call (Test System: AMES SALMONELLA TYPHIMURIUM, Strain/Indicator: TA100, Metabolic Activation: RAT LIVER S-9, PHENOBARBITAL AND BETA-NAPHTHOFLAVONE, Method: PREINCUBATION) is “active; positive”; the mutagenic call (Test System: AMES SALMONELLA TYPHIMURIUM, Strain/Indicator: TA100, Metabolic Activation: RAT, LIVER, S-9, AROCLOR 1254 (30%), Method: PREINCUBATION) was “active; positive”; the mutagenic call (Test System: AMES SALMONELLA TYPHIMURIUM, Strain/Indicator: TA1535, Metabolic Activation: NONE, Method: PREINCUBATION) was “inactive; negative”; the mutagenic call (Test System: AMES SALMONELLA TYPHIMURIUM, Strain/Indicator: TA1535, Metabolic Activation: RAT LIVER S-9, PHENOBARBITAL AND BETA-NAPHTHOFLAVONE, Method: PREINCUBATION) was “inactive; negative”; the mutagenic call (Test System: AMES SALMONELLA TYPHIMURIUM, Strain/Indicator: TA1537, Metabolic Activation: NONE, Method: PREINCUBATION) was “active; positive”. The mutagenic call (Test System: AMES SALMONELLA TYPHIMURIUM, Strain/Indicator: TA1537, Metabolic Activation: RAT LIVER S-9, PHENOBARBITAL AND BETA-NAPHTHOFLAVONE, Method: PREINCUBATION) is “active; positive”; the mutagenic call (Test System: AMES SALMONELLA TYPHIMURIUM, Strain/Indicator: TA1538, Metabolic Activation: NONE, Method: PREINCUBATION) is “active; positive”; the mutagenic call (Test System: AMES SALMONELLA TYPHIMURIUM, Strain/Indicator: TA1538, Metabolic Activation: RAT LIVER S-9, PHENOBARBITAL AND BETA-NAPHTHOFLAVONE, Method: PREINCUBATION) is “active; positive”; the mutagenic call (Test System: E.COLI, Strain/Indicator: WP2UVRA, Metabolic Activation: NONE, Method: PREINCUBATION) was “inactive; negative”; the mutagenic call (Test System: E.COLI, Strain/Indicator: WP2UVRA, Metabolic Activation: RAT LIVER S-9, PHENOBARBITAL AND BETA-NAPHTHOFLAVONE, Method: PREINCUBATION) is “active; positive”.
In the case of `Cc1c(C(C)C)c(=O)n(-c2ccccc2)n1C`, the mutagenic call is “inactive; negative” (Test System: AMES SALMONELLA TYPHIMURIUM, Strain/Indicator: TA98, Metabolic Activation: GUINEA PIG, LIVER, S-9, PCB, Method: PREINCUBATION); “inactive; negative” (Test System: AMES SALMONELLA TYPHIMURIUM, Strain/Indicator: TA98, Metabolic Activation: HAMSTER, LIVER, S-9, PCB, Method: PREINCUBATION); “inactive; negative” (Test System: AMES SALMONELLA TYPHIMURIUM, Strain/Indicator: TA98, Metabolic Activation: MOUSE, LIVER, S-9, PCB, Method: PREINCUBATION); “inactive; negative” under setting [1]; “inactive; negative” (Test System: AMES SALMONELLA TYPHIMURIUM, Strain/Indicator: TA98, Metabolic Activation: RAT, LIVER, S-9, PCB, Method: PREINCUBATION); “inactive; negative” (Test System: AMES SALMONELLA TYPHIMURIUM, Strain/Indicator: TA100, Metabolic Activation: GUINEA PIG, LIVER, S-9, PCB, Method: PREINCUBATION). In addition, the mutagenic call by setting is: (Test System: AMES SALMONELLA TYPHIMURIUM, Strain/Indicator: TA100, Metabolic Activation: HAMSTER, LIVER, S-9, PCB, Method: PREINCUBATION) “inactive; negative”; (Test System: AMES SALMONELLA TYPHIMURIUM, Strain/Indicator: TA100, Metabolic Activation: MOUSE, LIVER, S-9, PCB, Method: PREINCUBATION) “inactive; negative”; under setting [2], “inactive; negative”; under setting [3], “inactive; negative”.
On to `C[C@@H]1Cc2ccc(C(=O)N[C@@H](Cc3ccccc3)C(=O)O)c(O)c2C(=O)O1`, for which the mutagenic call (End Point: IN VIVO CHROMOSOMAL ABERRATIONS, Test System: SPLENOCYTES, Species: RAT, Strain/Sex: FISCHER 344/MALE, Route: ORAL (GAVAGE)) was “inactive; negative”; the mutagenic call (Test System: AMES SALMONELLA TYPHIMURIUM, Strain/Indicator: TA102, Metabolic Activation: NONE, Method: STANDARD PLATE) was “inactive; negative”; the mutagenic call (Test System: AMES SALMONELLA TYPHIMURIUM, Strain/Indicator: TA102, Metabolic Activation: RAT, LIVER, S-9, AROCLOR 1254, Method: STANDARD PLATE) is “inactive; negative”.
Turning to `Nc1ccn([C@H]2CC[C@@H](CO)O2)c(=O)n1`, the mutagenic call by setting is: (Test System: AMES SALMONELLA TYPHIMURIUM, Strain/Indicator: TA98, Metabolic Activation: HAMSTER, LIVER, S-9, AROCLOR 1254, Method: STANDARD PLATE) “inactive; negative”; under setting [4], “inactive; negative”; under setting [5], “inactive; negative”; (Test System: AMES SALMONELLA TYPHIMURIUM, Strain/Indicator: TA100, Metabolic Activation: HAMSTER, LIVER, S-9, AROCLOR 1254, Method: STANDARD PLATE) “inactive; negative”; under setting [6], “inactive; negative”; under setting [7], “inactive; negative”. For the same compound, the mutagenic call is, setting by setting: (Test System: MOUSE LYMPHOMA, Strain/Indicator: L5178Y (TK+/TK-), Metabolic Activation: NONE, Method: MICROWELL) “inactive; negative”; (Test System: MOUSE LYMPHOMA, Strain/Indicator: L5178Y (TK+/TK-), Metabolic Activation: NONE, Method: SUSPENSION/PLATE) “inactive; negative. reevaluation of results: negative”; (Test System: MOUSE LYMPHOMA, Strain/Indicator: L5178Y (TK+/TK-), Metabolic Activation: RAT, LIVER, S-9, AROCLOR 1254, Method: SUSPENSION/PLATE) “inactive; negative. reevaluation of results: negative”; (Test System: MOUSE LYMPHOMA, Strain/Indicator: L5178Y (TK+/TK-), Metabolic Activation: S-9, Method: MICROWELL) “inactive; negative”.
On to `O=Cc1cccc(-c2ccccc2)c1`, for which the mutagenic call by setting is: under setting [4], “inactive; negative”; under setting [5], “inactive; negative”; under setting [6], “inactive; negative”; under setting [7], “inactive; negative”.
`O=[N+]([O-])c1ccc2nc3c([N+](=O)[O-])cccc3nc2c1`: the mutagenic call was “active; positive” (Test System: AMES SALMONELLA TYPHIMURIUM, Strain/Indicator: TA98(NR), Metabolic Activation: NONE, Method: PREINCUBATION) and “active; positive” under setting [1].
In the case of `COC(=O)[C@@H](C)CN=[N+]=[N-]`, under setting [3], the mutagenic call is “active; positive”.

Source of the values: PubChem BioAssay AID1259407 (Chemical Carcinogenesis Research Information System (CCRIS), 2018).
